Source: patent US10206394B2, “Herbicidal compounds” (Syngenta Participations AG, priority 2014, dated 2019)
Like-named read-outs stand apart in the source and are kept apart here.

Experiments:
Experiment in all cases: Glasshouse assay for herbicidal activity (pre- and post-emergence), percentage phytotoxicity
Format in all cases: in vivo
Lolium perenne (LOLPE) = conditions: Lolium perenne
Summary of the method: (§1)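 Potted test plants in standard soil received the compound pre-emergence (day 1) or post-emergence (about day 12). Evaluation: visual damage score from 0% (none) to 100% (total), 15 days after application post-emergence, 20 days pre-emergence.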

[1] = tested on: Alopecurus myosuroides (ALOMY); conditions: Alopecurus myosuroides
Summary of the method: as §1

[2] = tested on: Echinochloa crus-galli (ECHCG); conditions: Echinochloa crus-galli
Summary of the method: as §1

Avena fatua (AVEFA) = conditions: Avena fatua
Summary of the method: as §1

[3] = post-emergence, 360 h, POST-emergence, rate 250 g/ha, visual score 15 DAA (100%=total damage, 0%=no damage), read-out: Post-emergence herbicidal activity (percentage phytotoxicity) LOLPE POST
[4] = pre-emergence, 480 h, PRE-emergence, rate 250 g/ha, visual score 20 DAA (100%=total damage, 0%=no damage), read-out: Pre-emergence herbicidal activity (percentage phytotoxicity) LOLPE PRE
[5] = post-emergence, 360 h, POST-emergence, rate 250 g/ha, visual score 15 DAA (100%=total damage, 0%=no damage), read-out: Post-emergence herbicidal activity (percentage phytotoxicity) ALOMY POST
[6] = pre-emergence, 480 h, PRE-emergence, rate 250 g/ha, visual score 20 DAA (100%=total damage, 0%=no damage), read-out: Pre-emergence herbicidal activity (percentage phytotoxicity) ALOMY PRE
[7] = post-emergence, 360 h, POST-emergence, rate 250 g/ha, visual score 15 DAA (100%=total damage, 0%=no damage), read-out: Post-emergence herbicidal activity (percentage phytotoxicity) ECHCG POST
[8] = pre-emergence, 480 h, PRE-emergence, rate 250 g/ha, visual score 20 DAA (100%=total damage, 0%=no damage), read-out: Pre-emergence herbicidal activity (percentage phytotoxicity) ECHCG PRE
[9] = post-emergence, 360 h, POST-emergence, rate 250 g/ha, visual score 15 DAA (100%=total damage, 0%=no damage), read-out: Post-emergence herbicidal activity (percentage phytotoxicity) AVEFA POST
[10] = pre-emergence, 480 h, PRE-emergence, rate 250 g/ha, visual score 20 DAA (100%=total damage, 0%=no damage), read-out: Pre-emergence herbicidal activity (percentage phytotoxicity) AVEFA PRE
[11] = post-emergence, 360 h, 250 g/ha, post-emergence, 15 DAA, visual assessment (100%=total damage, 0%=no damage), read-out: Post-emergence herbicidal activity (percentage phytotoxicity) LOLPE POST
[12] = pre-emergence, 480 h, 250 g/ha, pre-emergence, 20 DAA, visual assessment (100%=total damage, 0%=no damage), read-out: Pre-emergence herbicidal activity (percentage phytotoxicity) LOLPE PRE
[13] = post-emergence, 360 h, 250 g/ha, post-emergence, 15 DAA, visual assessment (100%=total damage, 0%=no damage), read-out: Post-emergence herbicidal activity (percentage phytotoxicity) ALOMY POST
[14] = pre-emergence, 480 h, 250 g/ha, pre-emergence, 20 DAA, visual assessment (100%=total damage, 0%=no damage), read-out: Pre-emergence herbicidal activity (percentage phytotoxicity) ALOMY PRE
[15] = post-emergence, 360 h, 250 g/ha, post-emergence, 15 DAA, visual assessment (100%=total damage, 0%=no damage), read-out: Post-emergence herbicidal activity (percentage phytotoxicity) ECHCG POST
[16] = pre-emergence, 480 h, 250 g/ha, pre-emergence, 20 DAA, visual assessment (100%=total damage, 0%=no damage), read-out: Pre-emergence herbicidal activity (percentage phytotoxicity) ECHCG PRE
[17] = post-emergence, 360 h, 250 g/ha, post-emergence, 15 DAA, visual assessment (100%=total damage, 0%=no damage), read-out: Post-emergence herbicidal activity (percentage phytotoxicity) AVEFA POST
[18] = pre-emergence, 480 h, 250 g/ha, pre-emergence, 20 DAA, visual assessment (100%=total damage, 0%=no damage), read-out: Pre-emergence herbicidal activity (percentage phytotoxicity) AVEFA PRE

SMILES	pest or weed control at 250 g/ha (Lolium perenne (LOLPE); [3])	pest or weed control at 250 g/ha (Lolium perenne (LOLPE); [4])	pest or weed control at 250 g/ha [1, 5]	pest or weed control at 250 g/ha [1, 6]	pest or weed control at 250 g/ha [2, 7]	pest or weed control at 250 g/ha [2, 8]	pest or weed control at 250 g/ha (Avena fatua (AVEFA); [9])	pest or weed control at 250 g/ha (Avena fatua (AVEFA); [10])	also measured
Cc1cc(-c2ncc(F)cn2)cc(C)c1C1C(=O)CC(CC(=O)NCc2ccc(C#N)cc2)C1=O (stereo not drawn) [Compound B272]	80%	50%	100%	80%	100%	90%	100%	80%	
CCc1cc(C)cc(C)c1C1C(=O)CC(CC(=O)NCc2cccc(Cl)c2)C1=O (stereo not drawn) [Compound B251]	100%	90%	100%	90%	100%	90%	90%	60%	
Cc1cc(-c2ncc(Cl)cc2F)cc(C)c1C1C(=O)CC(CC(=O)NCc2cccs2)C1=O (stereo not drawn) [Compound A125]									pest or weed control at 250 g/ha (Lolium perenne (LOLPE); post-emergence, 360 h, Rate 250 g/ha, post-emergence, assessed visually 15 DAA, 100%=total damage, 0%=no damage, read-out: Post-emergence herbicidal activity (percentage phytotoxicity) LOLPE POST): 100%; pest or weed control at 250 g/ha (Lolium perenne (LOLPE); pre-emergence, 480 h, Rate 250 g/ha, pre-emergence, assessed visually 20 DAA, 100%=total damage, 0%=no damage, read-out: Pre-emergence herbicidal activity (percentage phytotoxicity) LOLPE PRE): 90%; pest or weed control at 250 g/ha ([1]; post-emergence, 360 h, Rate 250 g/ha, post-emergence, assessed visually 15 DAA, 100%=total damage, 0%=no damage, read-out: Post-emergence herbicidal activity (percentage phytotoxicity) ALOMY POST): 90%; pest or weed control at 250 g/ha ([1]; pre-emergence, 480 h, Rate 250 g/ha, pre-emergence, assessed visually 20 DAA, 100%=total damage, 0%=no damage, read-out: Pre-emergence herbicidal activity (percentage phytotoxicity) ALOMY PRE): 70%; pest or weed control at 250 g/ha ([2]; post-emergence, 360 h, Rate 250 g/ha, post-emergence, assessed visually 15 DAA, 100%=total damage, 0%=no damage, read-out: Post-emergence herbicidal activity (percentage phytotoxicity) ECHCG POST): 100%; pest or weed control at 250 g/ha ([2]; pre-emergence, 480 h, Rate 250 g/ha, pre-emergence, assessed visually 20 DAA, 100%=total damage, 0%=no damage, read-out: Pre-emergence herbicidal activity (percentage phytotoxicity) ECHCG PRE): 100%; pest or weed control at 250 g/ha (Avena fatua (AVEFA); post-emergence, 360 h, Rate 250 g/ha, post-emergence, assessed visually 15 DAA, 100%=total damage, 0%=no damage, read-out: Post-emergence herbicidal activity (percentage phytotoxicity) AVEFA POST): 100%; pest or weed control at 250 g/ha (Avena fatua (AVEFA); pre-emergence, 480 h, Rate 250 g/ha, pre-emergence, assessed visually 20 DAA, 100%=total damage, 0%=no damage, read-out: Pre-emergence herbicidal activity (percentage phytotoxicity) AVEFA PRE): 80%
Cc1cc(C)c(C2C(=O)CC(CC(=O)NCc3ccc(F)cc3)C2=O)c(C)c1 (stereo not drawn) [Compound B16]									pest or weed control at 250 g/ha (Lolium perenne (LOLPE); [11]): 90%; pest or weed control at 250 g/ha (Lolium perenne (LOLPE); [12]): 90%; pest or weed control at 250 g/ha [1, 13]: 70%; pest or weed control at 250 g/ha [1, 14]: 80%; pest or weed control at 250 g/ha [2, 15]: 90%; pest or weed control at 250 g/ha [2, 16]: 90%; pest or weed control at 250 g/ha (Avena fatua (AVEFA); [17]): 70%; pest or weed control at 250 g/ha (Avena fatua (AVEFA); [18]): 30%
Cc1cc(-c2ncc(F)cc2F)cc(C)c1C1C(=O)CC(CC(=O)NCc2ccc(C#N)cn2)C1=O (stereo not drawn) [Compound B202]	70%	60%	90%	80%	90%	70%	80%	70%	
C/C=C/CNC(=O)CC1CC(=O)C(c2c(C)cc(-c3ncc(Cl)cc3F)cc2C)C1=O (stereo not drawn) [Compound B161]									pest or weed control at 250 g/ha (Lolium perenne (LOLPE); [11]): 100%; pest or weed control at 250 g/ha (Lolium perenne (LOLPE); [12]): 100%; pest or weed control at 250 g/ha [1, 13]: 100%; pest or weed control at 250 g/ha [1, 14]: 90%; pest or weed control at 250 g/ha [2, 15]: 100%; pest or weed control at 250 g/ha [2, 16]: 90%; pest or weed control at 250 g/ha (Avena fatua (AVEFA); [17]): 100%; pest or weed control at 250 g/ha (Avena fatua (AVEFA); [18]): 80%
CCNC(=O)CC1CC(=O)C(c2c(C)cc(-c3ncc(Cl)cn3)cc2C)C1=O (stereo not drawn) [Compound B305]	100%	100%	100%	100%	100%	100%	100%	100%	
CCc1cc(C)cc(C)c1C1C(=O)CC(CC(=O)N2CCOCC2)C1=O (stereo not drawn) [Compound B169]	100%	100%	100%	100%	100%	100%	100%	100%	
C=C(Cl)CNC(=O)CC1CC(=O)C(c2c(C)cc(C)cc2C)C1=O (stereo not drawn) [Compound B133]									pest or weed control at 250 g/ha (Lolium perenne (LOLPE); [11]): 90%; pest or weed control at 250 g/ha (Lolium perenne (LOLPE); [12]): 100%; pest or weed control at 250 g/ha [1, 13]: 50%; pest or weed control at 250 g/ha [1, 14]: 80%; pest or weed control at 250 g/ha [2, 15]: 50%; pest or weed control at 250 g/ha [2, 16]: 80%; pest or weed control at 250 g/ha (Avena fatua (AVEFA); [17]): 60%; pest or weed control at 250 g/ha (Avena fatua (AVEFA); [18]): 0%
Cc1cc(-c2ncc(F)cc2F)cc(C)c1C1C(=O)CC(CC(=O)NC(C)C)C1=O (stereo not drawn) [Compound B203]	100%	100%	100%	100%	100%	100%	100%	100%	
Cc1cc(-c2ncc(Cl)cn2)cc(C)c1C1C(=O)CC(CC(=O)NCc2cccc(F)c2)C1=O (stereo not drawn) [Compound B337]									pest or weed control at 250 g/ha (Lolium perenne (LOLPE); post-emergence, 360 h, Rate 250 g/ha, post-emergence, visual assessment 15 DAA, 100%=total damage, 0%=no damage, read-out: Post-emergence herbicidal activity (percentage phytotoxicity) LOLPE POST): 100%; pest or weed control at 250 g/ha (Lolium perenne (LOLPE); pre-emergence, 480 h, Rate 250 g/ha, pre-emergence, visual assessment 20 DAA, 100%=total damage, 0%=no damage, read-out: Pre-emergence herbicidal activity (percentage phytotoxicity) LOLPE PRE): 90%; pest or weed control at 250 g/ha ([1]; post-emergence, 360 h, Rate 250 g/ha, post-emergence, visual assessment 15 DAA, 100%=total damage, 0%=no damage, read-out: Post-emergence herbicidal activity (percentage phytotoxicity) ALOMY POST): 100%; pest or weed control at 250 g/ha ([1]; pre-emergence, 480 h, Rate 250 g/ha, pre-emergence, visual assessment 20 DAA, 100%=total damage, 0%=no damage, read-out: Pre-emergence herbicidal activity (percentage phytotoxicity) ALOMY PRE): 90%; pest or weed control at 250 g/ha ([2]; post-emergence, 360 h, Rate 250 g/ha, post-emergence, visual assessment 15 DAA, 100%=total damage, 0%=no damage, read-out: Post-emergence herbicidal activity (percentage phytotoxicity) ECHCG POST): 100%; pest or weed control at 250 g/ha ([2]; pre-emergence, 480 h, Rate 250 g/ha, pre-emergence, visual assessment 20 DAA, 100%=total damage, 0%=no damage, read-out: Pre-emergence herbicidal activity (percentage phytotoxicity) ECHCG PRE): 90%; pest or weed control at 250 g/ha (Avena fatua (AVEFA); post-emergence, 360 h, Rate 250 g/ha, post-emergence, visual assessment 15 DAA, 100%=total damage, 0%=no damage, read-out: Post-emergence herbicidal activity (percentage phytotoxicity) AVEFA POST): 100%; pest or weed control at 250 g/ha (Avena fatua (AVEFA); pre-emergence, 480 h, Rate 250 g/ha, pre-emergence, visual assessment 20 DAA, 100%=total damage, 0%=no damage, read-out: Pre-emergence herbicidal activity (percentage phytotoxicity) AVEFA PRE): 90%
Cc1cc(-c2ncc(F)cc2F)cc(C)c1C1C(=O)CC(CC(=O)N(C)C(C)(C)C)C1=O (stereo not drawn) [Compound B267]	100%	100%	100%	100%	100%	100%	100%	80%	
